ChEMBL document CHEMBL1148467, “Benzoxazinones as PPARgamma agonists. 2. SAR of the amide substituent and in vivo results in a type 2 diabetes model” (J Med Chem, 2004)

Key:
[1] = Oral bioavailability in rat (dose 30 mg/kg); format: ADME, organism-based; details: in vivo
[2] = biological target: T1, Peroxisome proliferator-activated receptor gamma (Homo sapiens, UniProt P37231)
T1 sequence (P37231 whole entry): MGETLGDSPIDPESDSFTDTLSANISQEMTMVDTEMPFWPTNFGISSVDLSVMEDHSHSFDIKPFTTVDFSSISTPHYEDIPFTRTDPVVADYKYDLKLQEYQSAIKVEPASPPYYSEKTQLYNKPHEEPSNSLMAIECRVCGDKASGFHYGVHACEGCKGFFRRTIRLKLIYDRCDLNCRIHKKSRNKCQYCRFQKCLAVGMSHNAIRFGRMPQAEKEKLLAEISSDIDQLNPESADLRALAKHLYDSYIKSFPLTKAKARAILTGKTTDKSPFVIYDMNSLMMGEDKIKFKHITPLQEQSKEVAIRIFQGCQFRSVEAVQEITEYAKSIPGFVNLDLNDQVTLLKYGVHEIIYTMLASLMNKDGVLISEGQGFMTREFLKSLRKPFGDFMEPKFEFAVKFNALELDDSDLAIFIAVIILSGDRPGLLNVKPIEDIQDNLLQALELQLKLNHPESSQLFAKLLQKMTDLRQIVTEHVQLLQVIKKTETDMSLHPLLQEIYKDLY
Description: Agonistic activity against PPAR (peroxisome proliferator activated receptor gamma) in Suarus chinesis

[3] = Half-life in rat at 30 mg/kg dose administered orally; details: in vivo, po
[4] = In vitro metabolic stability at 5 uM was determined by incubating with human liver microsomes at 37 degree C; format: ADME, Microsome
[5] = Area under curve was evaluated in rat at 3 mg/kg dose administered intravenously; format: ADME, organism-based; set-up: dose 3 mg/kg, route intravenous; details: in vivo, iv
[6] = Area under curve was evaluated in rat at 30 mg/kg dose administered orally; details: in vivo, po

Row | SMILES | EC50 [2] [µM] | also measured
1 | O=C(O)Cc1ccccc1OCCC1Oc2ccccc2N(CCCCCCF)C1=O (centres undefined) | 0.117 | bioavailability [1]: 100%; half-life [3]: 16 h; half-life at 5 µM [4]: 1.27 h; AUC [5]: 84 µM·h
2 | CN1C(=O)C(CCOc2ccccc2CC(=O)O)Oc2ccccc21 (centres undefined) | > 5 | 
3 | CNC(=O)CCCN1C(=O)C(CCOc2ccccc2CC(=O)O)Oc2ccccc21 (centres undefined) | > 5 | 
4 | COCCCCN1C(=O)[C@@H](CCOc2ccccc2CC(=O)O)Oc2ccccc21 | 0.274 | bioavailability [1]: 41%; half-life [3]: 6.7 h; half-life at 5 µM [4]: > 8.33 h; AUC [5]: 88 µM·h
5 | CC(C)N1C(=O)C(CCOc2ccccc2CC(=O)O)Oc2ccccc21 (centres undefined) | > 5 | 
6 | CC(O)CCCCN1C(=O)C(CCOc2ccccc2CC(=O)O)Oc2ccccc21 (centres undefined) | 1 | 
7 | CCCCCCN1C(=O)[C@H](CCOc2ccccc2CC(=O)O)Oc2ccccc21 | 1.2 | 
8 | CCCN1C(=O)C(CCOc2ccccc2CC(=O)O)Oc2ccccc21 (centres undefined) | ~5 | 
9 | CC(C)CN1C(=O)C(CCOc2ccccc2CC(=O)O)Oc2ccccc21 (centres undefined) | ~5 | 
10 | O=C(O)Cc1ccccc1OCCC1Oc2ccccc2N(CCCCCCCO)C1=O (centres undefined) | 0.149 | bioavailability [1]: 13%; half-life [3]: 7 h; half-life at 5 µM [4]: 1.27 h; AUC [5]: 2.3 µM·h
11 | CC(C)(O)CCCCN1C(=O)C(CCOc2ccccc2CC(=O)O)Oc2ccccc21 (centres undefined) | 0.644 | 
12 | CC(F)(F)CCCCN1C(=O)[C@H](CCOc2ccccc2CC(=O)O)Oc2ccccc21 | 1 | 
13 | CCCNC(=O)CN1C(=O)C(CCOc2ccccc2CC(=O)O)Oc2ccccc21 (centres undefined) | > 5 | 
14 | CC(F)(F)CCCCCN1C(=O)C(CCOc2ccccc2CC(=O)O)Oc2ccccc21 (centres undefined) | 0.534 | 
15 | CCCCN1C(=O)C(CCOc2ccccc2CC(=O)O)Oc2ccccc21 (centres undefined) | ~5 | 
16 | CCCCCCCN1C(=O)C(CCOc2ccccc2CC(=O)O)Oc2ccccc21 (centres undefined) | 0.234 | 
17 | CCCCCCN1C(=O)C(CCOc2ccccc2CC(=O)O)Oc2ccccc21 (centres undefined) | 0.1 | bioavailability [1]: 115%; AUC [6]: 406 µM·h; half-life [3]: 14 h; half-life at 5 µM [4]: 0.883 h
18 | O=C(O)Cc1ccccc1OCCC1Oc2ccccc2N(CC(=O)O)C1=O (centres undefined) | > 5 | 
19 | CCCCCCN1C(=O)[C@@H](CCOc2ccccc2CC(=O)O)Oc2ccccc21 | 0.1 | bioavailability [1]: 95%; half-life [3]: 14.5 h; half-life at 5 µM [4]: 1.22 h; AUC [5]: 327 µM·h
20 | CC(C)(CCCCN1C(=O)C(CCOc2ccccc2CC(=O)O)Oc2ccccc21)C(=O)O (centres undefined) | 1 | 
21 | CCOCCCN1C(=O)C(CCOc2ccccc2CC(=O)O)Oc2ccccc21 (centres undefined) | ~5 | 
22 | C/C(CCCCN1C(=O)C(CCOc2ccccc2CC(=O)O)Oc2ccccc21)=N\O (centres undefined) | 0.01 | bioavailability [1]: 16%; half-life [3]: 4.2 h; half-life at 5 µM [4]: 2.47 h; AUC [5]: 19.9 µM·h
23 | C=CCCCCN1C(=O)C(CCOc2ccccc2CC(=O)O)Oc2ccccc21 (centres undefined) | 0.208 | 
24 | CCCCCN1C(=O)C(CCOc2ccccc2CC(=O)O)Oc2ccccc21 (centres undefined) | 0.243 | 
25 | O=C(O)CCCCN1C(=O)C(CCOc2ccccc2CC(=O)O)Oc2ccccc21 (centres undefined) | > 5 | 
26 | CC(=O)CCCCCN1C(=O)C(CCOc2ccccc2CC(=O)O)Oc2ccccc21 (centres undefined) | 0.264 | 
27 | NC(=O)CCCCN1C(=O)C(CCOc2ccccc2CC(=O)O)Oc2ccccc21 (centres undefined) | > 5 | 

Row | SMILES | EC50 [2] [µM] | also measured
28 | O=C(O)CCCCCN1C(=O)C(CCOc2ccccc2CC(=O)O)Oc2ccccc21 (centres undefined) | > 5 | 
29 | CCCCCCCCN1C(=O)C(CCOc2ccccc2CC(=O)O)Oc2ccccc21 (centres undefined) | 0.3 | 
30 | CC(F)(F)CCCCN1C(=O)C(CCOc2ccccc2CC(=O)O)Oc2ccccc21 (centres undefined) | 0.179 | 
31 | O=C(O)Cc1ccccc1OCCC1Oc2ccccc2N(CCC2CCCCC2)C1=O (centres undefined) | 0.3 | 
32 | NC(=O)CCCCCN1C(=O)C(CCOc2ccccc2CC(=O)O)Oc2ccccc21 (centres undefined) | ~5 | 
33 | O=C(O)Cc1ccccc1OCC[C@H]1Oc2ccccc2N(CCCCCCF)C1=O | 0.152 | bioavailability [1]: 39%; half-life [3]: 7.9 h; half-life at 5 µM [4]: 1.85 h; AUC [5]: 93 µM·h
34 | CS(=O)(=O)NCCCCCCN1C(=O)C(CCOc2ccccc2CC(=O)O)Oc2ccccc21 (centres undefined) | > 5 | 
35 | O=C(O)Cc1ccccc1OCCC1Oc2ccccc2N(CCCCCO)C1=O (centres undefined) | 1 | 
36 | O=C(O)Cc1ccccc1OCCC1Oc2ccccc2N(CCCC2CCCC2)C1=O (centres undefined) | 2.7 | 
37 | CC(=O)CCCCN1C(=O)C(CCOc2ccccc2CC(=O)O)Oc2ccccc21 (centres undefined) | 0.26 | bioavailability [1]: 27%; half-life [3]: 9.8 h; half-life at 5 µM [4]: 0.85 h; AUC [5]: 5.8 µM·h
38 | O=C(O)Cc1ccccc1OCC[C@@H]1Oc2ccccc2N(CCCCCCF)C1=O | 0.57 | 
39 | CC(C)(C#N)CCCCN1C(=O)C(CCOc2ccccc2CC(=O)O)Oc2ccccc21 (centres undefined) | 0.359 | 
40 | CC(C)(C)CCCCN1C(=O)C(CCOc2ccccc2CC(=O)O)Oc2ccccc21 (centres undefined) | 1 | 
41 | O=C(O)Cc1ccccc1OCCC1Oc2ccccc2N(CCC2CCCC2)C1=O (centres undefined) | ~5 | 
42 | CCCSCCN1C(=O)C(CCOc2ccccc2CC(=O)O)Oc2ccccc21 (centres undefined) | 0.38 | 
43 | O=C(O)Cc1ccccc1OCCC1Oc2ccccc2N(CCO)C1=O (centres undefined) | > 5 | 
44 | CC(=O)NCCCCCCN1C(=O)C(CCOc2ccccc2CC(=O)O)Oc2ccccc21 (centres undefined) | > 5 | 
45 | CO/N=C(\C)CCCCN1C(=O)C(CCOc2ccccc2CC(=O)O)Oc2ccccc21 (centres undefined) | ~5 | 
46 | CCCCCCCCCCN1C(=O)C(CCOc2ccccc2CC(=O)O)Oc2ccccc21 (centres undefined) | 1 | 
47 | CC(F)(F)CCCCN1C(=O)[C@@H](CCOc2ccccc2CC(=O)O)Oc2ccccc21 | 0.295 | 
48 | COCCCCN1C(=O)C(CCOc2ccccc2CC(=O)O)Oc2ccccc21 (centres undefined) | 0.274 | 
49 | CC(C)CCCCN1C(=O)C(CCOc2ccccc2CC(=O)O)Oc2ccccc21 (centres undefined) | 0.079 | 
50 | O=C(O)Cc1ccccc1OCCC1Oc2ccccc2N(CCCCCCCF)C1=O (centres undefined) | 0.718 | 
51 | CCN1C(=O)C(CCOc2ccccc2CC(=O)O)Oc2ccccc21 (centres undefined) | > 5 | 
52 | CCCCCCCCCN1C(=O)C(CCOc2ccccc2CC(=O)O)Oc2ccccc21 (centres undefined) | ~5 | 
53 | O=C(O)Cc1ccccc1OCCC1Oc2ccccc2N(CCCCCCO)C1=O (centres undefined) | 0.2 | bioavailability [1]: 4%; half-life [3]: 0.6 h; half-life at 5 µM [4]: 0.95 h; AUC [5]: 2.5 µM·h
